Measurements taken from PMC9487755 (Epigenetics, 2021).
Read-outs that look alike come from different tables or passages of the source.

What was measured:
C. difficile CamA = target: T1, C. difficile CamA (Clostridioides difficile, UniProt Q183J3); test: CamA methylation inhibition assay; format: biochemical; conditions: for Relative inhibition of CamA activity at a single inhibitor concentration: 50 μM inhibitor
T1 sequence (Q183J3 1-577): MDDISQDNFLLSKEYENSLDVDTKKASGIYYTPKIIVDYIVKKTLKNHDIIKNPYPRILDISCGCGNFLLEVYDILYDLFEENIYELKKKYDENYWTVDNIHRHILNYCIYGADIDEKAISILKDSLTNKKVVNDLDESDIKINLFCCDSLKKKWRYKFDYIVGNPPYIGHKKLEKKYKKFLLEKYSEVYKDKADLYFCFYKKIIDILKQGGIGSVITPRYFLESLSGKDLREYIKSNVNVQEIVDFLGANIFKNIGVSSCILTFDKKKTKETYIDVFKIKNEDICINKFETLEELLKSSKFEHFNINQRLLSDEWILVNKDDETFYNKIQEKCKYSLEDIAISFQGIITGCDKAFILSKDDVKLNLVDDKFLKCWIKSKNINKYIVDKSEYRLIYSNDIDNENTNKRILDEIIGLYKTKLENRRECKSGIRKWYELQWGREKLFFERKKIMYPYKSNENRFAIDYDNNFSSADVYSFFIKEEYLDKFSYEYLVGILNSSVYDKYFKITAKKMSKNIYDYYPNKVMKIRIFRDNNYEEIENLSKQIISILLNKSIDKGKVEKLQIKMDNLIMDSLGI

CamA [1] = target: T2, CamA (Clostridioides difficile, UniProt Q183J3); test: ITC binding of inhibitors to CamA
T2 sequence (Q183J3 1-577): T1 sequence (Q183J3 1-577)

phage T4 Dam = conditions: read-out: Km of SAM for phage T4 Dam; cited from earlier work
E. coli Dam = conditions: read-out: Km of SAM for E. coli Dam; cited from earlier work
M.TaqI = conditions: read-out: KD of SAM for M.TaqI; cited from earlier work
CamA [2] = target: T2, CamA; conditions: cited from earlier work
PRMT7 = conditions: read-out: IC50 PRMT7 activity; cited from earlier work
[3] = tested on: four human RNA adenine MTases and two bacterial DNA adenine MTases; test: Selectivity: in vitro inhibition of other class I MTases; format: biochemical; conditions: four human RNA adenine MTases and two bacterial DNA adenine MTases (Figure 5)
[4] = target: T3, CamA (DNA adenine methyltransferase, plasmid pXC2184) (Clostridioides difficile, UniProt Q183J3 1-577); test: X-ray crystallography
T3 sequence: T1 sequence (Q183J3 1-577)

CC(C)N(CCCNC(=O)Nc1ccc(C(C)(C)C)cc1)C[C@H]1O[C@@H](n2ccc3c(N)ncnc32)[C@H](O)[C@@H]1O [EPZ004777]
Relative inhibition of CamA activity at a single inhibitor concentration (C. difficile CamA): notable inhibition

CC(C)N(C[C@H]1O[C@@H](n2cnc3c(N)ncnc32)[C@H](O)[C@@H]1O)[C@H]1C[C@@H](CCc2nc3cc(C(C)(C)C)ccc3[nH]2)C1 [EPZ5676, pinometostat]
IC50 (C. difficile CamA): > 250 µM
Relative inhibition of CamA activity at a single inhibitor concentration (C. difficile CamA): failed to inhibit CamA
Kd (CamA [1]): > 50 µM

CC1=C(C)C(=O)C(C(C)(C)CC(=O)N(CCCCSC[C@H]2O[C@@H](n3cnc4c(N)ncnc43)[C@H](O)[C@@H]2O)Cc2cccc(-c3ccc(Cl)cc3)c2)=C(C)C1=O [SGC3027]
Relative inhibition of CamA activity at a single inhibitor concentration (C. difficile CamA): does not possess in vitro inhibitory activity

Nc1ncnc2c1ccn2[C@@H]1O[C@H]([C@H](O)c2ccccc2)[C@@H](O)[C@H]1O [LLY-283]
Relative inhibition of CamA activity at a single inhibitor concentration (C. difficile CamA): much weaker inhibition than sinefungin

C[S+](CC[C@H](N)C(=O)[O-])C[C@H]1O[C@@H](n2cnc3c(N)ncnc32)[C@H](O)[C@@H]1O (stereo partly drawn) [SAM, S-adenosyl-L-methionine]
Km (phage T4 Dam): 0.5 µM
Km (E. coli Dam): 3 to 6 µM
Kd (M.TaqI): 2 µM
Kd (CamA [2]; read-out: KD of SAM binding by CamA): 35 µM
Km (CamA [2]; read-out: Km of SAM for CamA): > 17 µM

NCCCSC[C@H]1O[C@@H](n2cnc3c(N)ncnc32)[C@H](O)[C@@H]1O [SGC0911]
IC50 (PRMT7): 1 µM

CC(C)N(CCCNC(=O)Nc1ccc(C(C)(C)C)cc1)C[C@H]1O[C@@H](n2cc(Br)c3c(N)ncnc32)[C@H](O)[C@@H]1O [SGC0946]
IC50 (C. difficile CamA): 4.7 µM
Relative inhibition of CamA activity at a single inhibitor concentration (C. difficile CamA): notable inhibition
Fold more potent inhibition of CamA (IC50) than EPZ004777 (C. difficile CamA; SGC0946 vs. EPZ004777): ~ 9 X
in vitro inhibition against six distinct MTase enzymes [3]: ~ 50%
Kd (CamA [1]): 6.3 µM
Fold stronger binding to CamA (KD) than EPZ004777 (CamA [1]; SGC0946 vs. EPZ004777): ~ 3 X

B1: 14-bp CamA co-crystallization duplex (dsDNA)
DNA 1: TTCAAAAAGTCCCA
DNA 2: ATGGGACTTTTTGA
binding result [4]: binds
